Assay results reported in ChEMBL document CHEMBL1133080, “Substituted 5,7-diphenyl-pyrrolo[2,3d]pyrimidines: potent inhibitors of the tyrosine kinase c-Src” (Bioorg Med Chem Lett, 2000).
pIC50: −log10 of the molar value.

Key:
[1] = molecular target: Tyrosine-protein kinase CSK (Homo sapiens, UniProt P41240); assay: Tested for inhibition of protein tyrosine kinase Csk phosphorylation in intact cells; format: cell-based
[2] = molecular target: T1, Epidermal growth factor receptor (Homo sapiens, UniProt P00533); assay: Tested for inhibition of EGF-receptor tyrosine kinase in intact cells
[3] = molecular target: T1, Epidermal growth factor receptor; assay: Tested in vitro for inhibition of EGF-receptor tyrosine kinase
[4] = molecular target: Platelet-derived growth factor receptor (Mus musculus, UniProt P05622+P26618); assay: Inhibition of PDGF-receptor kinase; format: protein-complex assay
[5] = molecular target: Proto-oncogene tyrosine-protein kinase Src (Gallus gallus) (UniProt P00523); assay: Tested for inhibition of protein tyrosine kinase c-Src phosphorylation in intact cells
[6] = molecular target: Tyrosine-protein kinase ABL (Homo sapiens, UniProt P00519+P42684); assay: Tested in vitro for inhibition of non-receptor tyrosine kinase v-Abl; format: protein assay
[7] = molecular target: T2, Proto-oncogene tyrosine-protein kinase Src (Gallus gallus, UniProt P00523); assay: Tested for inhibition of protein tyrosine kinase c-Src phosphorylation
[8] = molecular target: Vascular endothelial growth factor receptor 2 (Homo sapiens, UniProt P35968); assay: Tested in vitro for inhibition of KDR-receptor tyrosine kinase
[9] = molecular target: Cyclin-dependent kinase 1 (Homo sapiens, UniProt P06493); assay: Tested in vitro for inhibition of serine/threonine kinase Cdc2
[10] = molecular target: T2, Proto-oncogene tyrosine-protein kinase Src; assay: Inhibition of protein tyrosine kinase c-Src

Chain of Vascular endothelial growth factor receptor 2 (P35968 whole entry): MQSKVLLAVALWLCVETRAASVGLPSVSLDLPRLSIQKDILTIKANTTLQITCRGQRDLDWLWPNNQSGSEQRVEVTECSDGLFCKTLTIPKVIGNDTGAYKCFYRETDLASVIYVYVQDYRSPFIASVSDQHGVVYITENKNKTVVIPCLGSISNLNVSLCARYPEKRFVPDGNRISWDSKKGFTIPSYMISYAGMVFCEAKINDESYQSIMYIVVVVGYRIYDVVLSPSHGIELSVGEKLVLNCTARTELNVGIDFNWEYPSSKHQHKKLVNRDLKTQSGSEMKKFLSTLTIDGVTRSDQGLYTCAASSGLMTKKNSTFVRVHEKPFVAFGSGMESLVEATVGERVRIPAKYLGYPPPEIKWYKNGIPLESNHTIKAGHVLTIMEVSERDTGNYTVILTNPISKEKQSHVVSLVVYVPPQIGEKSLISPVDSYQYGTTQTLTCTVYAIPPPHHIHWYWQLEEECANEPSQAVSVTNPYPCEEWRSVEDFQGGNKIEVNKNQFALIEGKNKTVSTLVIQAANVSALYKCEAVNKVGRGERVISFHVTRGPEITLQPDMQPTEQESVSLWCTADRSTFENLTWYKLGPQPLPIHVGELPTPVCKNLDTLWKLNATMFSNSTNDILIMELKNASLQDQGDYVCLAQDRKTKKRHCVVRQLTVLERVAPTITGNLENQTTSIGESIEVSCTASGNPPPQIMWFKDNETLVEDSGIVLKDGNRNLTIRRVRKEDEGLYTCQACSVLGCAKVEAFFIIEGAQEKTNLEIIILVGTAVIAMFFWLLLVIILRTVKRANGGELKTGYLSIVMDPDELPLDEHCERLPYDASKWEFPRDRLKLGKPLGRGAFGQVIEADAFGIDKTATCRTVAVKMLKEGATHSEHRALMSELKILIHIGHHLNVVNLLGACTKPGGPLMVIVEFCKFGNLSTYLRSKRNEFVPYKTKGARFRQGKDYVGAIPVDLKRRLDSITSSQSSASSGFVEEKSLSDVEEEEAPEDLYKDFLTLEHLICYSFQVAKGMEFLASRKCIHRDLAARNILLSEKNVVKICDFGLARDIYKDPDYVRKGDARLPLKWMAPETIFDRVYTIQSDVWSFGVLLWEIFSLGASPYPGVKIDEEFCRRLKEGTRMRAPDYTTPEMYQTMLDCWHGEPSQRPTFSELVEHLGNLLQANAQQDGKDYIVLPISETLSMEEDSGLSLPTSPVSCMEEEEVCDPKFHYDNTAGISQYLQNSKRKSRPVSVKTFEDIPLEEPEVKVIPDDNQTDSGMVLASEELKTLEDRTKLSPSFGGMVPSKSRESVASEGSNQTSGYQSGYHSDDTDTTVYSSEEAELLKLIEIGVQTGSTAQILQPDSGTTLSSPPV
T1 sequence (P00533 whole entry): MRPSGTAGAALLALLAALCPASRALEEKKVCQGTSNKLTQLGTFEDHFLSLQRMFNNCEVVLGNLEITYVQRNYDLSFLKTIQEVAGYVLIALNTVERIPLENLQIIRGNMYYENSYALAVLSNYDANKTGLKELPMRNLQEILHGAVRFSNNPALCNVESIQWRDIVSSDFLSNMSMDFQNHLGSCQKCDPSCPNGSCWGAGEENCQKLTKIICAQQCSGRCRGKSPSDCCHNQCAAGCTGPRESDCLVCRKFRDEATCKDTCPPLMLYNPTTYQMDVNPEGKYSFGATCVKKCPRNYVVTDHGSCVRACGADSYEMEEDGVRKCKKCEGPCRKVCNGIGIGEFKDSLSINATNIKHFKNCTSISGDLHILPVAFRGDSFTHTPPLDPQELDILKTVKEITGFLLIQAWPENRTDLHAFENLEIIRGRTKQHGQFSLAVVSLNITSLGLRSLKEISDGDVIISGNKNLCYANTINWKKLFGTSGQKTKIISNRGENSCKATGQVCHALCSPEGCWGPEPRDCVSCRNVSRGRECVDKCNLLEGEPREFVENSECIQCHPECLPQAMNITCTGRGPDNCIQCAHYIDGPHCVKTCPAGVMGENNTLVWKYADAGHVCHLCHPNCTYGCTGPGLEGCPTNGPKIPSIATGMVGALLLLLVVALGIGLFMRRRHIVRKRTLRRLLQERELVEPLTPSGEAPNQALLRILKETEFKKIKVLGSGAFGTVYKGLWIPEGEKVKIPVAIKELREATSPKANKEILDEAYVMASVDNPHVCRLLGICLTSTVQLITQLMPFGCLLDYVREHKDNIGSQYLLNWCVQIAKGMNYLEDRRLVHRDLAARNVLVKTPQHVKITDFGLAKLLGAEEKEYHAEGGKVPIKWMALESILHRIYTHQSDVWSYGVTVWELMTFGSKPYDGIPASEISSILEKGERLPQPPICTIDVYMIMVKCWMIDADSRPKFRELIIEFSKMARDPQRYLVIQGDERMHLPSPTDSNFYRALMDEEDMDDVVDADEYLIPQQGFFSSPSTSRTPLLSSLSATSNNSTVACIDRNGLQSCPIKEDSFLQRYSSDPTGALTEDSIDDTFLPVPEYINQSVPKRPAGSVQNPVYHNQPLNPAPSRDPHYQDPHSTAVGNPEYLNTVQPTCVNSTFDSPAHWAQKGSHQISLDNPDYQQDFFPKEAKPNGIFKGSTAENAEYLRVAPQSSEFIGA
Chain of Cyclin-dependent kinase 1 (P06493 whole entry): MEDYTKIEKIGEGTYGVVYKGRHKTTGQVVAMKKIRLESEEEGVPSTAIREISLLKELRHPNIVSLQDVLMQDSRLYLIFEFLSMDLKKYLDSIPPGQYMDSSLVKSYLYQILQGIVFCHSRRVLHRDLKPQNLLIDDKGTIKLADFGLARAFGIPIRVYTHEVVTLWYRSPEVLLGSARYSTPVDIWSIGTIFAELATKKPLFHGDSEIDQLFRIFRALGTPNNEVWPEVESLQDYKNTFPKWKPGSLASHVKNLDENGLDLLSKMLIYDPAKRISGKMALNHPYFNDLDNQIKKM

pIC50 [1] | pIC50 [2] | pIC50 [3] | pIC50 [4] | pIC50 [5] | IC50 [6] | pIC50 [7] | pIC50 [8] | pIC50 [9] | pIC50 [10] | SMILES
< 5.30 | 5.00 | 6.52 | 6.52 | 6.70 | 300 nM | 7.52 | < 6.00 | < 5.00 | – | COc1cccc(-c2cn(-c3ccc(CCN(C)CCO)cc3)c3ncnc(N)c23)c1
– | – | – | – | – | – | – | – | – | 6.30 | Nc1ncnc2c1c(-c1ccccc1)nn2-c1ccccc1
< 5.30 | – | – | 5.60 | 5.48 | 60 nM | 7.30 | < 6.00 | 4.37 | – | COc1cccc(-c2cn(-c3ccccc3)c3ncnc(N)c23)c1
5.37 | – | 5.85 | – | 6.15 | 1000 nM | 7.52 | – | 4.08 | – | Nc1ncnc2c1c(-c1ccccc1)cn2-c1ccc(CNCCO)cc1
– | – | – | – | – | – | 5.00 | – | – | – | O=c1[nH]cnc2c1c(-c1ccccc1)cn2-c1ccccc1
< 5.30 | 4.92 | 6.22 | 5.00 | < 5.30 | 200 nM | 7.22 | – | 4.33 | – | Nc1ncnc2c1c(-c1ccccc1)cn2-c1cccc(CO)c1
– | – | 5.58 | – | – | – | 5.22 | – | 4.05 | – | Cc1ccccc1-c1cn(-c2ccccc2)c2ncnc(N)c12
< 5.30 | – | 6.10 | – | 5.41 | 220 nM | 7.70 | < 6.00 | < 5.00 | – | COc1cccc(-c2cn(-c3ccc(CC(=O)NCCO)cc3)c3ncnc(N)c23)c1
– | – | 6.15 | – | – | 600 nM | 6.70 | 6.00 | < 4.00 | – | Nc1ncnc2c1c(-c1cccc(Cl)c1)cn2-c1ccccc1
– | – | 5.19 | – | – | – | 5.30 | – | < 5.00 | – | Nc1ncnc2c1c(-c1ccccc1)cn2-c1ccccc1CNCCO
5.30 | – | 5.47 | – | 5.40 | – | 8.00 | 5.44 | < 5.00 | – | Nc1ncnc2c1c(-c1ccccc1)cn2-c1cccc(CNCCO)c1
– | – | 6.46 | – | – | 400 nM | 6.82 | 6.70 | < 5.00 | – | COc1ccc(-c2cn(-c3ccccc3)c3ncnc(N)c23)cc1
– | – | 6.10 | – | – | 50 nM | 7.22 | < 6.00 | 4.48 | – | COc1cccc(-c2cn(-c3cccc(CO)c3)c3ncnc(N)c23)c1
– | – | 4.51 | – | – | > 10000 nM | < 5.00 | – | < 5.00 | – | CNc1ncnc2c1c(-c1ccccc1)cn2-c1ccccc1
– | – | 6.15 | – | – | 70 nM | 7.70 | 6.22 | 4.52 | – | Nc1ncnc2c1c(-c1ccccc1)cn2-c1ccc(CO)cc1
– | – | 5.89 | – | – | > 10000 nM | 5.00 | 5.96 | < 5.00 | – | CCOC(=O)c1ccc(-c2cn(-c3ccccc3)c3ncnc(N)c23)cc1
< 5.30 | 5.19 | 6.52 | 6.22 | 6.30 | 230 nM | 7.52 | < 6.00 | < 5.00 | – | COc1cccc(-c2cn(-c3ccc(CNCCO)cc3)c3ncnc(N)c23)c1
– | – | – | – | – | – | 5.10 | – | – | – | Clc1ncnc2c1c(-c1ccccc1)cn2-c1ccccc1
– | – | 5.96 | – | – | 3400 nM | 6.52 | – | < 5.00 | – | Nc1ncnc2c1c(-c1ccccc1)cn2-c1ccccc1CO

SMILES | pIC50 [1] | pIC50 [2] | pIC50 [3] | pIC50 [4] | pIC50 [5] | IC50 [6] | pIC50 [7] | pIC50 [8] | pIC50 [9] | pIC50 [10]
Nc1ncnc2c1c(-c1ccccc1)cn2-c1ccccc1 | < 5.30 | – | – | – | 5.46 | 20 nM | 7.00 | – | 4.27 | –
